Reference: patent US5434295A (priority 1994, dated 1995)
Where two headings read alike, the source gives them in different places.

Legend:
[1] = system: NMDA-induced toxicity in primary cerebral cortical cell cultures; assay: Protection of cortical neurons in culture from NMDA-induced toxicity; format: cell-based; conditions: Rattus norvegicus, NMDA 1000 μM; for inhibition at 10 µM: 10 μM compound
Method: Blockage of NMDA toxicity in tissue culture: Neurons can be grown in culture and survive for several weeks. […] The ability of various compounds to prevent the morphological and metabolic changes induced by NMDA is considered a measure of their neuroprotective activity in culture.
The neuroprotective effects of the compounds of the invention were tested on neurons exposed to various excitotoxins in culture. The compounds tested included HU-259, HU-260, HU-270 and HU-271, which were all shown to have NMDA antagonist properties in mice (Example 13).
The test drugs were examined for their ability to protect neurons in culture from toxic effects of agonists of the different glutamate receptor subtypes (agonists of ionotropic and/or metabotropic glutamate receptors), e.g. NMDA, AMPA, kainate and quisqualate. The culture conditions and assay conditions were all performed as described in Eshhar et al. (NeuroReport 5, No. 3, 1993). In brief, primary cerebral cortical cell cultures were prepared from 18-20 day old rat fetuses by enzymatic dissociation. Resulting cell suspensions were plated on confluent cortical glial cell feder layer (prepared 2 weeks earlier by a similar method). Neurons were grown in MEM media containing 0.6% glucose, FUDR/Uridine mixture and N2 supplement (insulin, progesterone, putrescine, selenium and transferrin). Cells at 10 days in culture were exposed to the various toxins either alone, or in the presence of the tested compounds. All exposures were carried out at 37° C. for 20-24 hours before assessing neuronal cell damage and neuroprotectant activity. Cell viability was determined morphologically following neuron specific enolase immunostaining of cells using the ABC biotin-avidin complex method, and determined quantitatively by measuring the extent of mitochondrial activity in living cells using the XTT-based assay. XTT is reduced by mitochondrial dehydrogenase to a soluble colored formazan. The density of color formation (O.D.), which is proportional to mitochondrial activity, was measured by a plate ELISA reader. The extent of neuroprotectant activity is expressed as % of cells rescued by the drugs tested.
Neuroprotectant activity of HU-259 (10 μM)--was assessed using orphological criteria only. Morphological observations (as determined by neuron specific enolase immunostaining) clearly indicated complete neuroprotection (100%).

Rat brain NMDA receptors = assay: Blockade of NMDA response in Xenopus oocytes injected with rat brain RNA; format: biochemical
From the text: Blockade of NMDA-induced voltage changes in Xenopus oocytes: Frog oocytes can be injected with genetic material from various species and organs, resulting in the expression of the various molecules encoded by this material in the oocyte. Injection of rat brain RNA provides active NMDA receptors on the ooctye surface. Application of NMDA results in changes in the electrical activity recorded from the oocytes. Various NMDA antagonists block the NMDA-induced changes in electrical activity and their potency and dose dependence in this system indicate their potency and mode of action as NMDA antagonists.
The oocyte is the most widely used system for studying the molecular, biophysical and pharmacological properties of expressed voltage- or transmitter-operated ion channels. This giant cell offers several advantages for this type of studies. It can be readily used for two-electrode voltage clamp studies, translates injected mRNA from different sources and functionally expresses the translated proteins, and it is also readily amenable for intracellular micron injections. Importantly, the recordings of neurotransmitter- or voltage-induced currents in a single oocyte are extremely stable and can performed repeatedly for 2-3 hours; this allows the performance of a full dose-response relation in single oocytes.
Rat brain NMDA receptors were expressed in Xenopus oocytes injected with total rat brain RNA. Dascal and Lotan. The conditions for injection culture and electrical recording from oocytes were as described by Dascal and Lotan (in: Methods in Molecular Biology, Longstaff and Revest, eds. Vol. 13, Chapter 13, Humana Press, N.J., 1992).
Briefly, female Xenopus were anesthetized by immersion in water containing 0.15% tricaine methanesulfonate and a small incision was made in the lower abdomen. Ovary fragments were removed into ND-96.
The oocytes were defolliculated by the collagenase treatment in order to remove the follicle cell layer. Defolliculated oocytes were injected with total rat brain RNA and incubated for 2-4 days at 22° C. in sterile NDE-96 solution. ND-96 solution contains (in mM): NaCl - 96, KCl - 2, CaCl2 - 1.8, Hepes - 5 (pH=7.4-7.6). NDE-96 contains in addition, 2.5 mM sodium pyruvate, 100 unit/ml penicillin, 100 μg/ml streptomycin. A single oocyte was placed in a 1 ml bath constantly superfused with ND-96 solution at room temperature. The cell was impaled with two microelectrodes and held at membrane potential of -60 mV using voltage clamp circuit.
RNA was extracted from the brain of 14-day old rat brain. Each oocyte was injected with 50 nl total RNA (4-8 mg/ml in water, stored at -80° C. in […] aliquots).
NMDA receptors were activated by application of NMDA with glycine in Mg-free ND-96 solution. It was shown previously and also observed in this study that the entry of calcium ions through the NMDA receptor-channel evokes a Ca-dependent Cl^- current which appeared as an early inward current peak preceding and overlapping the actual NMDA response and hindering a quantitative pharmacological study of NMDA antagonists. Experimental conditions were therefore worked out aimed at eliminating the Cl^- current. The best protocol employed the use of Ca-free, Ba-containing solution, avoiding repetitive application of antagonists, as well as other conditions including optimal perfusion rate and optimal intervals between repetitive NMDA applications.
Several NMDA receptor blockers were tested. These compounds have […] and have to be dissolved in 100% dimethyl sulfoxide (DMSO) and diluted for use in ND-96 that contained 1% DMSO. Therefore, the effect of 1% DMSO on the response to 10^-4 M NMDA and 5×10^-6 M glycine was examined. DMSO had no effect on NMDA response in three different cells.
Eight putative NMDA antagonists of the HU group, including 270, 271 and 259 were tested for anti-NMDA activity at a glutamate receptor. […]

[2] = Cortical neurone, read-out: % of cells rescued from NMDA-induced toxicity

Compound	inhibition at 10 µM ([1]; morphological criteria only (neuron specific enolase immunostaining), read-out: % of cells rescued from NMDA-induced toxicity / complete neuroprotection) [%]	selectivity NMDA over AMPA/kainate receptors (Rat brain NMDA receptors)	% inhibition of NMDA (Rat brain NMDA receptors; 1 μM) [%]	% inhibition of NMDA (Rat brain NMDA receptors; 10 μM) [%]	mode of NMDA antagonism (Rat brain NMDA receptors; Lineweaver-Burke analysis)	concentration at which inhibitory activity was first apparent (Rat brain NMDA receptors; NMDA response) [nM]	inhibition at 10 µM [1, 2] [%]	inhibition at 1 µM ([1]; Cortical neurone, 1 μM compound, read-out: % of cells rescued from NMDA-induced toxicity (concentration dependence)) [%]	inhibition at 2 µM ([1]; Cortical neurone, 2 μM compound, read-out: % of cells rescued from NMDA-induced toxicity (concentration dependence)) [%]	inhibition at 5 µM ([1]; Cortical neurone, 5 μM compound, read-out: % of cells rescued from NMDA-induced toxicity (concentration dependence)) [%]
CCCCCCC(C)(C)c1cc(OC(C)=O)c([C@H]2C=C(C(=O)O)[C@H]3C[C@@H]2C3(C)C)c(OC(C)=O)c1 [(+)-4-[4-DMH-2,6 diacetoxyphenyl]-2-carboxy-6,6-dimethylbicyclo[3.1.1]hept-2-en]	100	selective for the NMDA over AMPA/kainate receptors	35	41	non-competitive NMDA antagonists	10				
CCCCCCC(C)(C)c1cc(OC(C)=O)c([C@H]2C=C(C(=O)N(CC)CC)[C@H]3C[C@@H]2C3(C)C)c(OC(C)=O)c1 [HU-270]			20				0			
CCCCCCC(C)(C)c1cc(OC(C)=O)c([C@H]2C=C(C(=O)NCCO)[C@H]3C[C@@H]2C3(C)C)c(OC(C)=O)c1 [HU-271]			16	20			100	25	27	68
